According to US5430062A, “Stilbene derivatives as anticancer agents” (priority 1993, dated 1995):
Like-named read-outs stand apart in the source and are kept apart here.

Tests used:
[1] = system: tubulin; test: Inhibition of tubulin polymerization (turbidimetry); format: biochemical, bovine
[2] = system: MLM melanoma; test: MTT cytotoxicity assay, MLM; details: for IC50: read-out: Cytotoxicity ED50, MLM
[3] = system: A-549 lung carcinoma; test: MTT cytotoxicity assay, A-549; details: for IC50: Homo sapiens, A549, […], read-out: Cytotoxicity ED50, A-549
[4] = system: MCF-7 breast carcinoma; test: MTT cytotoxicity assay, MCF-7; details: for IC50: Homo sapiens, MCF7, […], read-out: Cytotoxicity ED50, MCF-7
[5] = system: HT-29 colon adenocarcinoma; test: MTT cytotoxicity assay, HT-29; details: for IC50: Homo sapiens, HT-29, […], read-out: Cytotoxicity ED50, HT-29
[6] = system: SKMEL-5 melanoma; test: MTT cytotoxicity assay, SKMEL-5; details: for IC50: Homo sapiens, SK-MEL-5, […], read-out: Cytotoxicity ED50, SKMEL-5
[7] = system: five cancer cell cultures; test: MTT cytotoxicity assay, five cancer cell cultures taken together; details: for cytotoxicity (in words): five cancer cell lines; for less cytotoxic than 8a / cytotoxicity reduced: relative to 8a
[8] = second series (Tables V-VII, IX), read-out: Inhibition of Tubulin Polymerization IC50 (±S.D.)
[9] = read-out: cytotoxicity ED50, A-549, MCF-7, HT-29, and SKMEL-5 cell cultures
[10] = first series (Table VIII and text), 37° C., 20 min, read-out: Tubulin polymerization IC50 (±S.D.)

Row | SMILES | IC50 [1, 8] | IC50 [2] | IC50 [3] | IC50 [4] | IC50 [5] | IC50 [6] | IC50 [7, 9] | cytotoxicity (in words) [7] | inhibition of tubulin polymerization (in words) [1] | IC50 [1, 10] | IC50 ([7]; read-out: cytotoxicity ED50, in at least three cell lines) | times less cytotoxic than combretastatin A-4 (1a) ([2]; MLM) | times less cytotoxic than combretastatin A-4 (1a) ([3]; A-549) | times more cytotoxic than combretastatin A-4 (1a) ([4]; MCF-7) | times more cytotoxic than combretastatin A-4 (1a) ([5]; HT-29) | times less cytotoxic than combretastatin A-4 (1a) ([6]; SKMEL-5) | IC50 ([7]; read-out: cytotoxicity ED50) | less cytotoxic than 8a / cytotoxicity reduced [7] | cytotoxicity reduced relative to 27 ([7]; 28 relative to 27)
1 | CNC(=O)/C(=C/c1ccc(OC)cc1)c1cc(OC)c(OC)c(OC)c1 [compound 24c, (E)-N-Methyl-[3-(4-methoxyphenyl)-2-(3,4,5-trimethoxyphenyl)]-prop-2-enoamide] | 35000 nM | 9300 nM | 24 nM | 50 nM | 26 nM | 24 nM | 6.4 to 50 nM | – | – | – | – | – | – | – | – | – | – | – | –
2 | CCN(CC)CCOc1ccc(CCc2cc(OC)c(OC)c(OC)c2)cc1 [17g] | > 40000 nM | > 25000 nM | 6800 nM | 4300 nM | 5200 nM | 8500 nM | – | decreased cytotoxicity | – | – | – | – | – | – | – | – | – | – | –
3 | COc1cc(/C=C/c2ccc(N(C)C)cc2)cc(OC)c1OC [compound 6n, (E)-1-[4-(N,N-Dimethylamino)phenyl]-2-(3,4,5-trimethoxyphenyl)ethene] | – | 12.5 nM | 6.1 nM | 82 nM | 6.9 nM | 4.6 nM | – | – | neither trans stilbene was able to significantly inhibit tubulin polymerization | > 50000 nM | < 1000 nM | – | – | – | – | – | – | – | –
4 | COc1ccc(/C=C\c2cc(OC)c(OC)c(OC)c2)cc1 [compound 5a, (Z)-1-(4-Methoxyphenyl)-2-(3,4,5-trimethoxyphenyl)ethene] | 2500 nM | – | – | – | – | 0.26 nM | – | – | strong inhibitors of tubulin polymerization | 2200 nM | – | ~7 times | about 20 times | about 10 times | approximately 140 times | ~30 times | < 1000 nM | – | –
5 | COc1ccc(C(=O)c2cc(OC)c(OC)c(OC)c2)cc1 [compound 27, 3,4,4',5-Tetramethoxybenzophenone] | 7400 nM | 13 nM | 11 nM | 15 nM | 13 nM | 12 nM | – | – | – | – | – | – | – | – | – | – | – | about 100 -fold | –
6 | COc1ccc(C(O)c2cc(OC)c(OC)c(OC)c2)cc1 (centres unmarked) [compound 28, 4-Methoxyphenyl-(3,4,5-trimethoxyphenyl)methanol] | > 40000 nM | 16800 nM | 1500 nM | 1900 nM | 1200 nM | 1500 nM | – | – | – | – | – | – | – | – | – | – | – | – | 100 times
7 | CCCOc1ccc(CCc2cc(OC)c(OC)c(OC)c2)cc1 [17b, 1-(4-n-Propoxyphenyl)-2-(3,4,5-trimethoxyphenyl)ethane] | > 40000 nM | 15000 nM | 7200 nM | 3900 nM | 6400 nM | 6700 nM | – | decreased cytotoxicity | – | – | – | – | – | – | – | – | – | – | –
8 | COC(=O)/C(=C/c1ccc(OC)cc1)c1cc(OC)c(OC)c(OC)c1 [compound 24a, (E)-Methyl 3-(4-methoxyphenyl)-2-(3,4,5-trimethoxyphenyl)-prop-2-enoate] | > 40000 nM | 9600 nM | 11 nM | 20 nM | 9.5 nM | 6.4 nM | 6.4 to 50 nM | – | – | – | – | – | – | – | – | – | – | – | –
9 | COc1ccc(C(C#N)Cc2cc(OC)c(OC)c(OC)c2)cc1 (centres unmarked) [compound 17i, 2-(4-Methoxyphenyl)-3-(3,4,5-trimethoxyphenyl)propanonitrile] | > 40000 nM | 21100 nM | 11500 nM | 14300 nM | 9400 nM | 6400 nM | – | – | – | – | – | – | – | – | – | – | – | 10,000 -fold | –
10 | COc1cc(CCc2ccc(SC)cc2)cc(OC)c1OC [17c, 1-(4-Methylthiophenyl)-2-(3,4,5-trimethoxyphenyl)ethane] | > 40000 nM | 1300 nM | 150 nM | 200 nM | 400 nM | 240 nM | – | decreased cytotoxicity | – | – | – | – | – | – | – | – | – | – | –
